Data set [1] is described as follows: MRT (0 to infinity) in BALB/c nude mouse xenografted with human LoVo cells at 25 mg/kg, ip administered as single dose and measured after 12 hrs by LC-MS/MS analysis. It counts as ADME, organism-based. The following applies: in vivo. On the technique in general: Xenograft models place foreign cells or tissue in a host animal.
Data set [2] can be described thus: Cmax in BALB/c nude mouse xenografted with human LoVo cells at 25 mg/kg, ip administered as single dose and measured after 12 hrs by LC-MS/MS analysis. As to conditions: in vivo. It counts as ADME, organism-based.
Data set [3] can be described thus: Toxicity in BALB/c nude mouse xenografted with human LoVo cells assessed as effect on liver at 12.5 to 25 mg/kg, ip administered twice daily for 15 days by H and E staining based analysis. In kind it is organism-based. As to conditions: in vivo, 360 h, dose 12.5-25 mg/kg, time 15 day.

In general, MRT inf refers to a mean duration of stay, worked out from the concentration-time curve. For orientation: Cmax means the maximum level reached in the sampled fluid or tissue.

Molecule `C[C@@H]1COCCN1c1cc(C2([S@@](C)(=O)=NC(=O)CCc3cn(CCCCCCCC(=O)Nc4cccc5c4C(=O)N(C4CCC(=O)NC4=O)C5=O)nn3)CC2)nc(-c2ccnc3[nH]ccc23)n1` (stereo partly drawn) registered an MRT inf in data set [1] of 4.65 h. The peak level in data set [2] (Cmax) was 1180 ng/mL. The Activity entry in data set [3] is listed as “Non-Toxic”.
